Experimental data reported in PubChem BioAssay AID248 (DTP/NCI, 2004).
“And” between values parts separate entries of the source, which are not always exact repeats. Identical values can stand only once. Inconclusive results and toxic doses are left out. Rule as the data show it: active = T/C of 150% or more; inactive = T/C below 125%. Peptide text beside a SMILES is read from it. * marks the point of attachment. Cbz = O=C(OCc1ccccc1)*

Test system: L1210 leukemia ip in BDF1 mice, survival T/C
Assay: NCI In Vivo Anticancer Drug Screen. Data for tumor model L1210 Leukemia (intraperitoneal) in B6D2F1 (BDF1) mice
Conditions: endpoint: mean survival time, higher = longer survival
Procedure, shortened: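 Antitumor effect is assessed in tumor-bearing animals. Survival in the compound arm is compared with a vehicle-dosed control arm and expressed as their quotient.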

[1] = dose: 100.0 mg/kg/injection, schedule: Q01DX001 (ip), vehicle: saline with Tween-80
[2] = dose: 200.0 mg/kg/injection, schedule: Q01DX001 (ip), vehicle: saline with Tween-80
[3] = dose: 100.0 mg/kg/injection, schedule: Q01DX009 (ip), vehicle: Klucel (hydroxypropylcellulose) (HPC)
[4] = dose: 200.0 mg/kg/injection, schedule: Q01DX009 (ip), vehicle: Klucel (hydroxypropylcellulose) (HPC)
[5] = dose: 400.0 mg/kg/injection, schedule: Q01DX009 (ip), vehicle: Klucel (hydroxypropylcellulose) (HPC)
[6] = dose: 100.0 mg/kg/injection, schedule: Q04DX003 (ip), vehicle: Klucel (hydroxypropylcellulose) (HPC)
[7] = dose: 200.0 mg/kg/injection, schedule: Q04DX003 (ip), vehicle: Klucel (hydroxypropylcellulose) (HPC)
[8] = dose: 400.0 mg/kg/injection, schedule: Q04DX003 (ip), vehicle: Klucel (hydroxypropylcellulose) (HPC)
[9] = dose: 75.0 mg/kg/injection, schedule: Q01DX001 (ip), vehicle: saline
[10] = dose: 150.0 mg/kg/injection, schedule: Q01DX001 (ip), vehicle: saline
[11] = dose: 100.0 mg/kg/injection, schedule: Q01DX001 (ip), vehicle: saline
[12] = dose: 200.0 mg/kg/injection, schedule: Q01DX001 (ip), vehicle: saline
[13] = dose: 400.0 mg/kg/injection, schedule: Q01DX001 (ip), vehicle: saline
[14] = dose: 100.0 mg/kg/injection, schedule: Q01DX001 (ip), vehicle: carboxymethylcellulose (CMC)
[15] = dose: 200.0 mg/kg/injection, schedule: Q01DX001 (ip), vehicle: carboxymethylcellulose (CMC)
[16] = dose: 400.0 mg/kg/injection, schedule: Q01DX001 (ip), vehicle: carboxymethylcellulose (CMC)
[17] = dose: 100.0 mg/kg/injection, schedule: Q01DX009 (ip), vehicle: saline with Tween-80
[18] = dose: 200.0 mg/kg/injection, schedule: Q01DX009 (ip), vehicle: saline with Tween-80
[19] = dose: 100.0 mg/kg/injection, schedule: Q04DX003 (ip), vehicle: saline

Measured: T/C

CCCCCCCCCCCC(=O)N1CCCCC1
inactive: [1] 101 % of control | [2] 97 % of control | dose: 400.0 mg/kg/injection, schedule: Q01DX001 (ip), vehicle: saline with Tween-80 89 % of control

CC(C)(C)NC(=O)NCc1ccc(Cl)c(Cl)c1
inactive: [3] 92 % of control | [4] 93 % of control | [5] 98 % of control

Nc1ccc(N=Nc2ccccc2)cc1
inactive: dose: 50.0 mg/kg/injection, schedule: Q04DX002 (ip), vehicle: Klucel (hydroxypropylcellulose) (HPC) 105 % of control | dose: 100.0 mg/kg/injection, schedule: Q04DX002 (ip), vehicle: Klucel (hydroxypropylcellulose) (HPC) 105 % of control | dose: 200.0 mg/kg/injection, schedule: Q04DX002 (ip), vehicle: Klucel (hydroxypropylcellulose) (HPC) 97 % of control and 115 % of control | dose: 400.0 mg/kg/injection, schedule: Q04DX002 (ip), vehicle: Klucel (hydroxypropylcellulose) (HPC) 112 % of control

Cc1ccc(NC(=S)N(C)C)cc1Cl
inactive: [3] 97 % of control | [6] 104 % of control | [4] 101 % of control | [7] 97 % of control | [5] 100 % of control | [8] 104 % of control

O=[N+]([O-])c1ccc(S(=O)NOCc2ccccc2)cc1 (centres undefined)
inactive: [3] 96 % of control | [4] 94 % of control | [5] 91 % of control

ClCCCNCCCCl
inactive: [9] 101 % of control | [10] 97 % of control

Cc1ccc(Nc2nnc(N=Nc3ccccc3)s2)cc1C
inactive: dose: 100.0 mg/kg/injection, schedule: Q01DX009 (ip), vehicle: other 101 % of control | dose: 200.0 mg/kg/injection, schedule: Q01DX009 (ip), vehicle: other 98 % of control | dose: 400.0 mg/kg/injection, schedule: Q01DX009 (ip), vehicle: other 98 % of control

COc1ccc(CN2CCCN(Cc3ccc(OC)cc3OC)C2c2cc(Br)ccc2O)c(OC)c1
inactive: dose: 50.0 mg/kg/injection, schedule: Q01DX001 (ip), vehicle: saline 97 % of control | [11] 90 % of control | [12] 92 % of control | [13] 92 % of control

CC12CCC(C1)C(C)(C)C2N1C(c2ccccc2)C1c1ccccc1 (centres undefined)
inactive: [3] 87 % of control | [4] 87 % of control | [5] 100 % of control

CC/C=C(/C)C(C#N)(C(=O)O)C(C)C (centres undefined)
inactive: [9] 98 % of control | [10] 104 % of control | dose: 300.0 mg/kg/injection, schedule: Q01DX001 (ip), vehicle: saline 94 % of control

C/C(=N\N=C(/C)c1ccc(Cl)cc1)c1ccc(Cl)cc1
inactive: dose: 100.0 mg/kg/injection, schedule: Q01DX001 (ip), vehicle: Klucel (hydroxypropylcellulose) (HPC) 87 % of control | [3] 89 % of control and 95 % of control | [6] 89 % of control and 96 % of control | dose: 200.0 mg/kg/injection, schedule: Q01DX001 (ip), vehicle: Klucel (hydroxypropylcellulose) (HPC) 87 % of control | [4] 86 % of control and 95 % of control | [7] 89 % of control and 102 % of control | dose: 400.0 mg/kg/injection, schedule: Q01DX001 (ip), vehicle: Klucel (hydroxypropylcellulose) (HPC) 97 % of control | [5] 94 % of control | [8] 98 % of control and 93 % of control

Nc1ccc2c(c1)C(O)c1cc(Br)ccc1-2 (centres undefined)
inactive: [14] 108 % of control | [15] 100 % of control | [16] 105 % of control

O=C(COc1ccccc1)NCCO
inactive: [3] 110 % of control | [6] 100 % of control | [4] 103 % of control | [7] 97 % of control | [5] 111 % of control | [8] 102 % of control

CCCCCc1ccc2oc(=O)c3ccc(C)cc3c2c1O
inactive: [3] 90 % of control | [6] 97 % of control | [4] 93 % of control | [7] 98 % of control | [5] 97 % of control | [8] 97 % of control

CCCCCCCCNNC(=O)c1ccccc1
inactive: [14] 95 % of control | [15] 97 % of control | [16] 92 % of control

COc1ccc(Cl)cc1
inactive: [17] 92 % of control | [18] 90 % of control

NC(N)=N/N=C/C(=N\N=C(N)N)C(F)(F)F
inactive: dose: 15.0 mg/kg/injection, schedule: Q01DX Z (ip), vehicle: saline 102 % of control | dose: 30.0 mg/kg/injection, schedule: Q01DX Z (ip), vehicle: saline 98 % of control | dose: 60.0 mg/kg/injection, schedule: Q01DX Z (ip), vehicle: saline 101 % of control and 108 % of control | dose: 120.0 mg/kg/injection, schedule: Q01DX Z (ip), vehicle: saline 93 % of control and 106 % of control | dose: 120.0 mg/kg/injection, schedule: Q01DX Z (oral), vehicle: saline 96 % of control | dose: 240.0 mg/kg/injection, schedule: Q01DX Z (ip), vehicle: saline 98 % of control | dose: 240.0 mg/kg/injection, schedule: Q01DX Z (oral), vehicle: saline 104 % of control | dose: 480.0 mg/kg/injection, schedule: Q01DX Z (oral), vehicle: saline 98 % of control | dose: 960.0 mg/kg/injection, schedule: Q01DX Z (oral), vehicle: saline 98 % of control

O=C(Nc1ccc2c(O)cc(S(=O)(=O)O)cc2c1)Nc1ccc2c(O)cc(S(=O)(=O)O)cc2c1
inactive: [19] 96 % of control | dose: 200.0 mg/kg/injection, schedule: Q04DX003 (ip), vehicle: saline 108 % of control | dose: 400.0 mg/kg/injection, schedule: Q04DX003 (ip), vehicle: saline 108 % of control

CC(NC(=O)C(C)NC(=O)OCc1ccccc1)C(N)=O (stereo not drawn) (Cbz-Ala-Ala-NH2; configuration not given here)
inactive: [17] 88 % of control | [18] 88 % of control | dose: 400.0 mg/kg/injection, schedule: Q01DX009 (ip), vehicle: saline with Tween-80 88 % of control

CCOC(=O)CCc1c(C(=O)OCC)[nH]c(C)c1C(=O)O
inactive: [6] 95 % of control | [7] 98 % of control | [8] 97 % of control

COc1ccc(/C=N\NC(=O)CNC(=O)Nc2cccc([N+](=O)[O-])c2)cc1O
inactive: dose: 50.0 mg/kg/injection, schedule: Q01DX009 (ip), vehicle: saline with Tween-80 93 % of control | [17] 100 % of control | [18] 96 % of control

O=c1[nH]c2ccccc2nc1CBr
inactive: dose: 12.5 mg/kg/injection, schedule: Q04DX003 (ip), vehicle: saline with Tween-80 94 % of control | dose: 25.0 mg/kg/injection, schedule: Q04DX003 (ip), vehicle: saline with Tween-80 89 % of control | dose: 50.0 mg/kg/injection, schedule: Q04DX003 (ip), vehicle: saline with Tween-80 86 % of control

CC1CCN1c1ccccc1 (centres undefined)
inactive: dose: 100.0 mg/kg/injection, schedule: Q04DX003 (ip), vehicle: acetone 88 % of control

NC(CCl)=NC1CC1
inactive: dose: 25.0 mg/kg/injection, schedule: Q04DX002 (ip), vehicle: saline 106 % of control | dose: 50.0 mg/kg/injection, schedule: Q04DX002 (ip), vehicle: saline 106 % of control | dose: 100.0 mg/kg/injection, schedule: Q04DX002 (ip), vehicle: saline 110 % of control

CC1(N(O)C(=O)NC2CCCCC2)CCCCC1
inactive: [1] 101 % of control | [2] 97 % of control

CCCC(N=Cc1ccccc1O)C(=O)O.CCCC(N=Cc1ccccc1O)C(=O)O.[Fe] (centres undefined)
inactive: dose: 25.0 mg/kg/injection, schedule: Q01DX009 (ip), vehicle: saline 95 % of control | dose: 25.0 mg/kg/injection, schedule: Q04DX003 (ip), vehicle: saline 98 % of control | dose: 50.0 mg/kg/injection, schedule: Q01DX009 (ip), vehicle: saline 93 % of control | dose: 50.0 mg/kg/injection, schedule: Q04DX003 (ip), vehicle: saline 98 % of control | [19] 96 % of control and 98 % of control

Cc1c(C[N+](C)(C)C)c(=O)n(-c2ccccc2)n1C
inactive: [11] 104 % of control | [12] 98 % of control | [13] 98 % of control

C=CCNC(=O)Oc1cccc(NC(=O)OC)c1
inactive: dose: 100.0 mg/kg/injection, schedule: Q04DX003 (ip), vehicle: saline with Tween-80 107 % of control | dose: 200.0 mg/kg/injection, schedule: Q04DX003 (ip), vehicle: saline with Tween-80 108 % of control | dose: 400.0 mg/kg/injection, schedule: Q04DX003 (ip), vehicle: saline with Tween-80 105 % of control
